Source: US10836768B2, “N-acyl-(3-substituted)-(8-substituted)-5,6-dihydro-[1,2,4]triazolo[4,3-a]pyrazines as selective NK-3 receptor antagonists” (OGEDA SA, priority 2013, dated 2020)

Experiment: Determination of plasma protein binding (equilibrium dialysis)
Assay type: in vitro ADME
Conditions: bound drug fraction to plasma protein; 4 hours at 37° C.
Source text: Determination of Plasma Protein Binding
The pharmacokinetic and pharmacodynamic properties of chemicals/drugs are largely a function of the reversible binding of chemicals to plasma or serum proteins. […] Consequently, the extent of the plasma protein binding (PPB) of a compound influences its action as well as its distribution and elimination.
The determination of plasma protein binding (PPB) of a compound is enabled by equilibrium dialysis, an accepted and standard method for reliable estimation of the non-bound drug fraction in plasma. RED (Rapid Equilibrium Dialysis) device insert is made of two side-by-side chambers separated by an O-ring-sealed vertical cylinder of dialysis membrane (MWCO ˜8,000). […] After 4 hours incubation at 37° C. under shaking, an aliquot is removed from each chamber and analyzed by a LC-MS/MS procedure enables the determination of both free and bound drug.
The “free fraction” may be calculated as 100%−% rPPB (i.e. the complementary percentage of that disclosed in Table 4, corresponding to the drug concentration that is unbound and therefore available to engage biological target and elicit pharmacological activity).

Compound | Exposure (% rPPB) [%]
Cc1nsc(-c2nnc3n2CCN(C(=O)c2ccc(F)cc2)C3C)n1 (racemic) [Compound 14, (4-fluorophenyl)(8-methyl-3-(3-methyl-1,2,4-thiadiazol-5-yl)-5,6-dihydro-[1,2,4]triazolo[4,3-a]pyrazin-7(8H)-yl)methanone] | 21
CCC1c2nnc(-c3nc(C)ns3)n2CCN1C(=O)c1ccc(F)cc1 (racemic) [Compound 23, (8-ethyl-3-(3-methyl-1,2,4-thiadiazol-5-yl)-5,6-dihydro-[1,2,4]triazolo[4,3-a]pyrazin-7(8H)-yl)(4-fluorophenyl)methanone] | 34
Cc1nsc(-c2nnc3n2CCN(C(=O)c2cc(F)c(F)c(F)c2F)C3C)n1 (racemic) [Compound 31, (8-methyl-3-(3-methyl-1,2,4-thiadiazol-5-yl)-5,6-dihydro-[1,2,4]triazolo[4,3-a]pyrazin-7(8H)-yl)(2,3,4,5-tetrafluorophenyl)methanone] | 31
Cc1nsc(-c2nnc3n2CCN(C(=O)c2ccc(F)c(F)c2)C3C)n1 (racemic) [Compound 32] | 25
Cc1nsc(-c2nnc3n2CCN(C(=O)c2ccc(F)c(F)c2F)C3C)n1 (racemic) [Compound 33, (8-methyl-3-(3-methyl-1,2,4-thiadiazol-5-yl)-5,6-dihydro-[1,2,4]triazolo[4,3-a]pyrazin-7(8H)-yl)(2,3,4-trifluorophenyl)methanone] | 29
Cc1nsc(-c2nnc3n2CCN(C(=O)c2cc(F)c(F)c(F)c2)C3C)n1 (racemic) [Compound 34, (8-methyl-3-(3-methyl-1,2,4-thiadiazol-5-yl)-5,6-dihydro-[1,2,4]triazolo[4,3-a]pyrazin-7(8H)-yl)(3,4,5-trifluorophenyl)methanone] | 24
Cc1nsc(-c2nnc3n2CCN(C(=O)c2ccc(F)c(Cl)c2)C3C)n1 (racemic) [Compound 35, (3-chloro-4-fluorophenyl)(8-methyl-3-(3-methyl-1,2,4-thiadiazol-5-yl)-5,6-dihydro-[1,2,4]triazolo[4,3-a]pyrazin-7(8H)-yl)methanone] | 52
Cc1nsc(-c2nnc3n2CCN(C(=O)c2ccc(Cl)c(F)c2)C3C)n1 (racemic) [Compound 36, (4-chloro-3-fluorophenyl)(8-methyl-3-(3-methyl-1,2,4-thiadiazol-5-yl)-5,6-dihydro-[1,2,4]triazolo[4,3-a]pyrazin-7(8H)-yl)methanone] | 60
Cc1nsc(-c2nnc3n2CCN(C(=O)c2ccc(Cl)c(Cl)c2)C3C)n1 (racemic) [Compound 38, (3,4-dichlorophenyl)(8-methyl-3-(3-methyl-1,2,4-thiadiazol-5-yl)-5,6-dihydro-[1,2,4]triazolo[4,3-a]pyrazin-7(8H)-yl)methanone] | 76
CCc1nsc(-c2nnc3n2CCN(C(=O)c2ccc(F)cc2)C3C)n1 (racemic) [Compound 39, (3-(3-ethyl-1,2,4-thiadiazol-5-yl)-8-methyl-5,6-dihydro-[1,2,4]triazolo[4,3-a]pyrazin-7(8H)-yl)(4-fluorophenyl)methanone] | 43
CCc1noc(-c2nnc3n2CCN(C(=O)c2ccc(F)cc2)C3C)n1 (racemic) [Compound 40, (3-(3-ethyl-1,2,4-oxadiazol-5-yl)-8-methyl-5,6-dihydro-[1,2,4]triazolo[4,3-a]pyrazin-7(8H)-yl)(4-fluorophenyl)methanone] | 24
Cc1nsc(-c2nnc3n2CCN(C(=O)c2ccc(F)c(Cl)c2)[C@@H]3C)n1 [Compound 6, (R)-(3-chloro-4-fluorophenyl)(8-methyl-3-(3-methyl-1,2,4-thiadiazol-5-yl)-5,6-dihydro-[1,2,4]triazolo[4,3-a]pyrazin-7(8H)-yl)methanone] | 53
Cc1nsc(-c2nnc3n2CCN(C(=O)c2cc(F)c(F)c(F)c2)[C@@H]3C)n1 [Compound 7, (R)-(8-methyl-3-(3-methyl-1,2,4-thiadiazol-5-yl)-5,6-dihydro-[1,2,4]triazolo[4,3-a]pyrazin-7(8H)-yl)(3,4,5-trifluorophenyl)methanone] | 26
Cc1nsc(-c2nnc3n2CCN(C(=O)c2cc(F)c(F)c(F)c2F)[C@@H]3C)n1 [Compound 10, (R)-(8-methyl-3-(3-methyl-1,2,4-thiadiazol-5-yl)-5,6-dihydro-[1,2,4]triazolo[4,3-a]pyrazin-7(8H)-yl)(2,3,4,5-tetrafluorophenyl)methanone] | 30
Cc1nsc(-c2nnc3n2CCN(C(=O)c2cccc(F)c2)[C@@H]3C)n1 [Compound 15, (R)-(3-fluorophenyl)(8-methyl-3-(3-methyl-1,2,4-thiadiazol-5-yl)-5,6-dihydro-[1,2,4]triazolo[4,3-a]pyrazin-7(8H)-yl)methanone] | 20
Cc1nsc(-c2nnc3n2CCN(C(=O)c2cccc(Cl)c2)[C@@H]3C)n1 [Compound 16, (R)-(3-chlorophenyl)(8-methyl-3-(3-methyl-1,2,4-thiadiazol-5-yl)-5,6-dihydro-[1,2,4]triazolo[4,3-a]pyrazin-7(8H)-yl)methanone] | 36
Cc1nsc(-c2nnc3n2CCN(C(=O)c2cc(F)cc(F)c2)[C@@H]3C)n1 [Compound 17, (R)-(3,5-difluorophenyl)(8-methyl-3-(3-methyl-1,2,4-thiadiazol-5-yl)-5,6-dihydro-[1,2,4]triazolo[4,3-a]pyrazin-7(8H)-yl)methanone] | 24
Cc1nsc(-c2nnc3n2CCN(C(=O)c2ccc(F)cc2F)[C@@H]3C)n1 [Compound 18, (R)-(2,4-difluorophenyl)(8-methyl-3-(3-methyl-1,2,4-thiadiazol-5-yl)-5,6-dihydro-[1,2,4]triazolo[4,3-a]pyrazin-7(8H)-yl)methanone] | 23
Cc1ccc(C(=O)N2CCn3c(-c4nc(C)ns4)nnc3[C@H]2C)cc1 [Compound 19, (R)-(8-methyl-3-(3-methyl-1,2,4-thiadiazol-5-yl)-5,6-dihydro-[1,2,4]triazolo[4,3-a]pyrazin-7(8H)-yl)(p-tolyl)methanone] | 51
Cc1nsc(-c2nnc3n2CCN(C(=O)c2ccc(C(F)(F)F)cc2)[C@@H]3C)n1 [Compound 21, (R)-(8-methyl-3-(3-methyl-1,2,4-thiadiazol-5-yl)-5,6-dihydro-[1,2,4]triazolo[4,3-a]pyrazin-7(8H)-yl)(4-(trifluoromethyl)phenyl) methanone] | 38
CC[C@@H]1c2nnc(-c3nc(C)ns3)n2CCN1C(=O)c1ccc(F)cc1 [Compound 22, (R)-(8-ethyl-3-(3-methyl-1,2,4-thiadiazol-5-yl)-5,6-dihydro-[1,2,4]triazolo[4,3-a]pyrazin-7(8H)-yl)(4-fluorophenyl)methanone] | 27
CCC[C@@H]1c2nnc(-c3nc(C)ns3)n2CCN1C(=O)c1ccc(F)cc1 [Compound 24, (R)-(4-fluorophenyl)(3-(3-methyl-1,2,4-thiadiazol-5-yl)-8-propyl-5,6-dihydro-[1,2,4]triazolo[4,3-a]pyrazin-7(8H)-yl)methanone] | 48
COc1cc(C(=O)N2CCn3c(-c4nc(C)ns4)nnc3[C@H]2C)ccc1F [Compound 25, (R)-(4-fluoro-3-methoxyphenyl)(8-methyl-3-(3-methyl-1,2,4-thiadiazol-5-yl)-5,6-dihydro-[1,2,4]triazolo[4,3-a]pyrazin-7(8H)-yl)methanone] | 19
Cc1nsc(-c2nnc3n2CCN(C(=O)c2ccccc2C)[C@@H]3C)n1 [Compound 26, (R)-(8-methyl-3-(3-methyl-1,2,4-thiadiazol-5-yl)-5,6-dihydro-[1,2,4]triazolo[4,3-a]pyrazin-7(8H)-yl)(o-tolyl)methanone] | 19
COc1cccc(C(=O)N2CCn3c(-c4nc(C)ns4)nnc3[C@H]2C)c1 [Compound 27, (R)-(3-methoxyphenyl)(8-methyl-3-(3-methyl-1,2,4-thiadiazol-5-yl)-5,6-dihydro-[1,2,4]triazolo[4,3-a]pyrazin-7(8H)-yl)methanone] | 24
Cc1noc(-c2nnc3n2CCN(C(=O)c2ccc(F)cc2)[C@@H]3C)n1 [Compound 28, (R)-(4-fluorophenyl)(8-methyl-3-(3-methyl-1,2,4-oxadiazol-5-yl)-5,6-dihydro-[1,2,4]triazolo[4,3-a]pyrazin-7(8H)-yl)methanone] | 12
Cc1nsc(-c2nnc3n2CCN(C(=O)c2ccc(C#N)cc2)[C@@H]3C)n1 [Compound 29, (R)-4-(8-methyl-3-(3-methyl-1,2,4-thiadiazol-5-yl)-5,6,7,8-tetrahydro-[1,2,4]triazolo[4,3-a]pyrazine-7-carbonyl)benzonitrile] | 10
C[C@@H]1c2nnc(-c3nc(C(F)F)ns3)n2CCN1C(=O)c1ccc(F)cc1 [Compound 42, (R)-(3-(3-(difluoromethyl)-1,2,4-thiadiazol-5-yl)-8-methyl-5,6-dihydro-[1,2,4]triazolo[4,3-a]pyrazin-7(8H)-yl)(4-fluorophenyl)methanone] | 16
C[C@@H]1c2nnc(-c3nc(C(C)(F)F)no3)n2CCN1C(=O)c1ccc(F)cc1 [Compound 43, (R)-(3-(3-(1,1-difluoroethyl)-1,2,4-oxadiazol-5-yl)-8-methyl-5,6-dihydro-[1,2,4]triazolo[4,3-a]pyrazin-7(8H)-yl)(4-fluorophenyl)methanone] | 47
